Experimental data: PubChem BioAssay (NCI)
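Grown in 96-well plates, cells were treated for 48 hours with each compound at five concentrations. Insufficient inhibition: endpoint recorded as highest concentration tested. GI50 marks 50% less growth. At the TGI there is no net growth.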

How the values were obtained:
Assay in all cases: DTP human tumour cell line panel, 48 h
EKVX NSCLC = tested on: EKVX NSCLC
HCT-15 colon = tested on: HCT-15 colon
K-562 leukemia = tested on: K-562 leukemia
KM12 colon = tested on: KM12 colon
M14 melanoma = tested on: M14 melanoma
MDA-MB-435 = tested on: MDA-MB-435
NCI-H226 lung = tested on: NCI-H226 lung
RXF 393 renal = tested on: RXF 393 renal
SF-268 CNS = tested on: SF-268 CNS
SK-OV-3 ovarian = tested on: SK-OV-3 ovarian

SMILES | GI50 (EKVX NSCLC) | TGI (EKVX NSCLC) | GI50 (HCT-15 colon) | TGI (HCT-15 colon) | GI50 (K-562 leukemia) | TGI (K-562 leukemia) | GI50 (KM12 colon) | TGI (KM12 colon) | GI50 (M14 melanoma) | TGI (M14 melanoma) | GI50 (MDA-MB-435) | TGI (MDA-MB-435) | GI50 (NCI-H226 lung) | TGI (NCI-H226 lung) | GI50 (RXF 393 renal) | TGI (RXF 393 renal) | GI50 (SF-268 CNS) | TGI (SF-268 CNS) | GI50 (SK-OV-3 ovarian) | TGI (SK-OV-3 ovarian)
COC1CC2CCC(C)C(O)(O2)C(=O)C(=O)N2CCCCC2C(=O)OC(C(C)CC2CCC(O)C(OC)C2)CC(=O)C(C)C=C(C)C(O)C(OC)C(=O)C(C)CC(C)/C=C/C=C/C=C1C (stereo unspecified) | < 5 nM | 13.7 µM | 81.3 nM | 14.7 µM | 4.94 µM | 32.3 µM | 3.47 µM | 11.2 µM | 5.41 µM | 13.3 µM | 838 nM | 14.9 µM | < 0.005 µM | 9.71 µM | < 5 nM | 7.48 µM | 3.82 µM | 11.5 µM | < 0.005 µM | 10.7 µM
NC(N)=N/N=C\c1cccc(OCc2ccccc2)c1 | 11000 nM | 25.4 µM | 3290 nM | 12.9 µM | 3.87 µM | 16.1 µM | 2.41 µM | 8.33 µM | – | – | 1970 nM | 4.56 µM | 6.74 µM | 25.9 µM | 2540 nM | 6.64 µM | 10.9 µM | 25 µM | 10.5 µM | 22.3 µM
Cc1ccccc1N=Nc1ccc(NC(=O)c2ccnn2C)c(C)c1 | 7720 nM | > 100 µM | 68400 nM | > 100 µM | – | – | > 100 µM | > 100 µM | 32.4 µM | > 100 µM | 54900 nM | > 100 µM | 15 µM | 89.6 µM | 18500 nM | 47.2 µM | 31.7 µM | > 100 µM | 24 µM | > 100 µM
O=C(CNc1ccc2c(c1)C(=O)c1ccccc1C2=O)Nc1ccc2c(c1)C(=O)c1ccccc1C2=O | 1880 nM | 4.02 µM | 312 nM | 0.972 µM | – | – | 1.4 µM | 2.73 µM | 0.712 µM | 2.04 µM | 850 nM | 2.29 µM | 0.568 µM | 1.44 µM | 687 nM | 2.04 µM | 0.575 µM | 1.71 µM | 1.82 µM | 6.99 µM
O=c1c2ccccc2n(C[C@H]2CO2)c2ccccc12 | 2560 nM | 6.44 µM | 1680 nM | 5.27 µM | 2.2 µM | > 100 µM | 2.19 µM | 7.02 µM | 1.67 µM | 3.9 µM | 1610 nM | 3.24 µM | – | – | 1390 nM | 2.82 µM | 1.62 µM | 5.97 µM | 2.64 µM | 7.33 µM
O=C1C(Cl)=C(Nc2cccc(Cl)c2)C(=O)N1Cc1ccccc1Cl | 20200 nM | 50.9 µM | 3960 nM | 38.2 µM | 1.87 µM | 8.91 µM | 10.7 µM | 49.6 µM | 4.41 µM | 19.4 µM | 1010 nM | 4.09 µM | 0.296 µM | 2.9 µM | 1260 nM | 6.53 µM | 13.1 µM | 36 µM | – | –
COC(=O)C1=C(C(=O)ON)C2C=CC1(C(Cc1ccccc1)Nc1ccccc1)O2 (stereo unspecified) | 1750 nM | 3.51 µM | 1730 nM | 3.5 µM | – | – | 15.1 µM | 30 µM | – | – | 1920 nM | 3.86 µM | 12.8 µM | 25.6 µM | 1780 nM | 3.2 µM | 10.5 µM | 23 µM | 14.8 µM | 28 µM
